Data reported in ChEMBL document CHEMBL4680156, “Discovery of novel pyrido-pyrrolidine hybrid compounds as alpha-glucosidase inhibitors and alternative agent for control of type 1 diabetes” (Eur J Med Chem, 2020).

Columns and labels:
[1] = Inhibition of Saccharomyces cerevisiae alpha-glucosidase using pNPG as substrate preincubated for 15 mins followed by substrate addition and measured after 30 mins by spectrophotometric analysis
[2] = Inhibition of Saccharomyces cerevisiae alpha-glucosidase using PNPG as substrate incubated for 10 mins by spectrophotometric method
[3] = target: T1, Alpha-mannosidase (Canavalia ensiformis) (UniProt C0HJB3); experiment: Inhibition of jack bean alpha-mannosidase at 1 mM using […] as substrate incubated for 10 mins by spectrophotometric method
T1 sequence (whole entry): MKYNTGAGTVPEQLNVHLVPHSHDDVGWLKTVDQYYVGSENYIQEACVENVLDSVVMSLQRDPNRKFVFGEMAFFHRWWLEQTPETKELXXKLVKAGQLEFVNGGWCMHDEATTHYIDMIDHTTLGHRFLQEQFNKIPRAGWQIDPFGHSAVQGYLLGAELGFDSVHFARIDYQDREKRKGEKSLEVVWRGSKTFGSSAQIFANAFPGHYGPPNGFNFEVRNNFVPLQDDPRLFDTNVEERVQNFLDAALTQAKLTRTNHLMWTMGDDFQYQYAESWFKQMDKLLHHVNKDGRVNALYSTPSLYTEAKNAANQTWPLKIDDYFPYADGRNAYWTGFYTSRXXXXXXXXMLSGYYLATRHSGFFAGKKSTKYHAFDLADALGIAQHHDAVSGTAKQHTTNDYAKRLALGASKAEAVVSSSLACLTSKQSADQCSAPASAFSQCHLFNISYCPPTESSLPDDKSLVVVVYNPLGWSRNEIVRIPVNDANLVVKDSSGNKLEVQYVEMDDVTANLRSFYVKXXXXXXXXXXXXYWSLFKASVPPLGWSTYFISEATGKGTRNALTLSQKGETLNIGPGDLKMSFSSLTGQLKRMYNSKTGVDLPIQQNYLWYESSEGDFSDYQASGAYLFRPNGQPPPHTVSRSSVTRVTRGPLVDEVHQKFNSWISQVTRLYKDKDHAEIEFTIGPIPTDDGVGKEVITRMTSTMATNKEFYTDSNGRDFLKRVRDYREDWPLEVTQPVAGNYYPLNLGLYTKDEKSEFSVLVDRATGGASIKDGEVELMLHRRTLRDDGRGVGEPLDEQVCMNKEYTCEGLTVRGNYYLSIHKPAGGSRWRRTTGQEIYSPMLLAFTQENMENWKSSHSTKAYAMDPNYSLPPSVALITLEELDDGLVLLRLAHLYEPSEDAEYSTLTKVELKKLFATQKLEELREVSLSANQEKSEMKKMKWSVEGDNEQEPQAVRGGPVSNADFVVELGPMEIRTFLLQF

[4] = Non-competitive inhibition of rat intestinal alpha-glucosidase; format: tissue-based, Intestine
[5] = target: T2, Tissue alpha-L-fucosidase (Bos taurus, UniProt Q2KIM0); experiment: Inhibition of bovine kidney alpha-fucosidase using […] as substrate incubated for 10 mins by spectrophotometric method
T2 sequence (Q2KIM0 whole entry): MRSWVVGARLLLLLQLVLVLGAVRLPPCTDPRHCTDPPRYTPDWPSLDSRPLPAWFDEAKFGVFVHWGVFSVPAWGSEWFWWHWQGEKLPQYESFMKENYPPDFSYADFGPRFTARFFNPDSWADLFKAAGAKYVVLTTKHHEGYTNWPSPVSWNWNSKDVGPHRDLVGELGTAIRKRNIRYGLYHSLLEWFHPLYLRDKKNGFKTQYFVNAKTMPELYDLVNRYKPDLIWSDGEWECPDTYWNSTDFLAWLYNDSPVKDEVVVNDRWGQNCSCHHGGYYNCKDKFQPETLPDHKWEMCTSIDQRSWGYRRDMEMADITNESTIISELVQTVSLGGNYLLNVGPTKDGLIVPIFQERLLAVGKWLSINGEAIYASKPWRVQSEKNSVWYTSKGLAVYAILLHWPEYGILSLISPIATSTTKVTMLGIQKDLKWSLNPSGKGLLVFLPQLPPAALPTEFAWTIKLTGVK

Alpha-mannosidase = target: T3, Alpha-mannosidase (Canavalia ensiformis, UniProt C0HJB3); experiment: Inhibition of jack bean alpha-mannosidase using […] as substrate incubated for 10 mins by spectrophotometric method
T3 sequence (C0HJB3 whole entry): T1 sequence (whole entry)

Q: Which IC50 [1] does the source give for `CCCCCCCCn1cnc2cc(N)c(-c3ccccc3O)cc21` here?
A: 0.16 µM

Q: And the IC50 [2]?
A: 5.03 µM

Q: What about the inhibition [3] of the same compound?
A: < 50%

Q: Which Ki [4] does the source give for `CCC/C=C1/OC(=O)c2ccccc21` [(E)-BUTYLIDENEPHTHALIDE] here?
A: 4.86 µM

Q: What about the IC50 [2] of the same compound?
A: 7.15 µM

Q: What about the IC50 [5] of the same compound?
A: 82 µM

Q: And the IC50 (Alpha-mannosidase)?
A: 41 µM
